In ChEMBL document CHEMBL1201862, “PubChem BioAssay data set” (2004):
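Where inhibition never reached the appropriate level, the endpoint shown equals the highest concentration tested. Otherwise, values were interpolated linearly from a five-concentration, 48-hour dose response in 96-well plates. GI50 = concentration required for 50% inhibition of growth.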 Calls of active or inactive are those of the source. Cut-off read from the data, not from the text of the source: active = GI50 up to about 1.1 µM and inactive = higher.

Key:
Experiment in all cases: NCI-60 cell line screen, 48 h
SK-MEL-2 = tested on: SK-MEL-2
UO-31 = tested on: UO-31
SK-MEL-5 = tested on: SK-MEL-5
SR = tested on: SR
HOP-62 = tested on: HOP-62
HOP-92 = tested on: HOP-92
HT-29 = tested on: HT-29
EKVX = tested on: EKVX
Hs-578T = tested on: Hs-578T
NCI-H23 = tested on: NCI-H23
HCT-116 = tested on: HCT-116
KM12 = tested on: KM12
SK-MEL-28 = tested on: SK-MEL-28
T47D = tested on: T47D
MDA-MB-231 = tested on: MDA-MB-231
COLO 205 = tested on: COLO 205
NCI/ADR-RES = tested on: NCI/ADR-RES
NCI-H522 = tested on: NCI-H522
SF-295 = tested on: SF-295
A498 = tested on: A498
ACHN = tested on: ACHN
M14 = tested on: M14
DU-145 = tested on: DU-145
MOLT-4 = tested on: MOLT-4
SF-539 = tested on: SF-539
RPMI-8226 = tested on: RPMI-8226
PC-3 = tested on: PC-3
NCI-H460 = tested on: NCI-H460
TK-10 = tested on: TK-10
Malme-3M = tested on: Malme-3M
BT-549 = tested on: BT-549
U-251 = tested on: U-251
LOX IMVI = tested on: LOX IMVI
RXF 393 = tested on: RXF 393
SN12C = tested on: SN12C
OVCAR-4 = tested on: OVCAR-4
OVCAR-8 = tested on: OVCAR-8
CAKI-1 = tested on: CAKI-1
SK-OV-3 = tested on: SK-OV-3
CCRF-CEM = tested on: CCRF-CEM
A549 = tested on: A549
HCC 2998 = tested on: HCC 2998
MDA-MB-435 = tested on: MDA-MB-435
786-0 = tested on: 786-0
SNB-19 = tested on: SNB-19
SW-620 = tested on: SW-620
OVCAR-5 = tested on: OVCAR-5
HL-60 = tested on: HL-60
UACC-257 = tested on: UACC-257
SF-268 = tested on: SF-268
MCF7 = tested on: MCF7
NCI-H226 = tested on: NCI-H226
K562 = tested on: K562
HCT-15 = tested on: HCT-15
IGROV-1 = tested on: IGROV-1
SNB-75 = tested on: SNB-75
OVCAR-3 = tested on: OVCAR-3
MDA-N = tested on: MDA-N
UACC-62 = tested on: UACC-62

COC(=O)CCC(C)[C@H]1CCC2C3C(C[C@H](OC(C)=O)[C@@]21C)[C@@]1(C)CCC2(C[C@H]1C[C@H]3OC(C)=O)OOC1(CCC(C(C)(C)C)CC1)OO2 (stereo partly specified)
GI50 (SK-MEL-2): > 100 µM (inactive)
GI50 (UO-31): 12.4 µM (inactive)
GI50 (SK-MEL-5): 22.6 µM (inactive)
GI50 (SR): 4.45 µM (inactive)
GI50 (HOP-62): 9.73 µM (inactive)
GI50 (HOP-92): 6.59 µM (inactive)
GI50 (HT-29): > 100 µM (inactive)
GI50 (EKVX): 4.12 µM (inactive)
GI50 (Hs-578T): 5.43 µM (inactive)
GI50 (NCI-H23): 9.42 µM (inactive)
GI50 (HCT-116): 3.97 µM (inactive)
GI50 (KM12): 14.1 µM (inactive)
GI50 (SK-MEL-28): > 100 µM (inactive)
GI50 (T47D): 5.71 µM (inactive)
GI50 (MDA-MB-231): 46.3 µM (inactive)
GI50 (COLO 205): > 100 µM (inactive)
GI50 (NCI/ADR-RES): > 100 µM (inactive)
GI50 (NCI-H522): 21 µM (inactive)
GI50 (SF-295): 7.53 µM (inactive)
GI50 (A498): > 100 µM (inactive)
GI50 (ACHN): 5.7 µM (inactive)
GI50 (M14): > 100 µM (inactive)
GI50 (DU-145): > 100 µM (inactive)
GI50 (MOLT-4): 7.52 µM (inactive)
GI50 (SF-539): 68.7 µM (inactive)
GI50 (RPMI-8226): 3.91 µM (inactive)
GI50 (PC-3): 6.7 µM (inactive)
GI50 (NCI-H460): 5.65 µM (inactive)
GI50 (TK-10): 17.7 µM (inactive)
GI50 (Malme-3M): 64.3 µM (inactive)
GI50 (BT-549): 33.3 µM (inactive)
GI50 (U-251): 6.73 µM (inactive)
GI50 (LOX IMVI): 5.25 µM (inactive)
GI50 (RXF 393): > 100 µM (inactive)
GI50 (SN12C): 58.2 µM (inactive)
GI50 (OVCAR-4): 15.6 µM (inactive)
GI50 (OVCAR-8): 12.4 µM (inactive)
GI50 (CAKI-1): 12.8 µM (inactive)
GI50 (SK-OV-3): > 100 µM (inactive)
GI50 (CCRF-CEM): 5.5 µM (inactive)
GI50 (A549): 7.24 µM (inactive)
GI50 (HCC 2998): 46.3 µM (inactive)
GI50 (MDA-MB-435): 56 µM (inactive)
GI50 (786-0): 13.5 µM (inactive)
GI50 (SNB-19): > 100 µM (inactive)
GI50 (SW-620): 12.3 µM (inactive)
GI50 (OVCAR-5): > 100 µM (inactive)
GI50 (HL-60): 9.4 µM (inactive)
GI50 (UACC-257): 31.8 µM (inactive)
GI50 (SF-268): 18.6 µM (inactive)
GI50 (MCF7): 31.4 µM (inactive)
GI50 (NCI-H226): 59 µM (inactive)
GI50 (K562): 8.69 µM (inactive)
GI50 (HCT-15): 50 µM
GI50 (IGROV-1): 17.1 µM (inactive)
GI50 (SNB-75): 37.9 µM (inactive)
GI50 (OVCAR-3): 6.85 µM (inactive)

CCC(=O)Nc1ccc(NCC(=O)Nc2ccc(OC)cc2)cc1
GI50 (SK-MEL-2): 18.4 µM (inactive)
GI50 (UO-31): 45.5 µM (inactive)
GI50 (SK-MEL-5): 17.5 µM (inactive)
GI50 (SR): 31.8 µM (inactive)
GI50 (HOP-62): 2.99 µM (inactive)
GI50 (HOP-92): 23.8 µM (inactive)
GI50 (HT-29): 20.9 µM (inactive)
GI50 (EKVX): 16.7 µM (inactive)
GI50 (Hs-578T): 30.3 µM (inactive)
GI50 (NCI-H23): 19.9 µM (inactive)
GI50 (HCT-116): 26.1 µM (inactive)
GI50 (KM12): 17.4 µM (inactive)
GI50 (SK-MEL-28): 49.1 µM (inactive)
GI50 (T47D): 21.1 µM (inactive)
GI50 (COLO 205): 31.8 µM (inactive)
GI50 (NCI/ADR-RES): 28.1 µM (inactive)
GI50 (NCI-H522): 15.2 µM (inactive)
GI50 (SF-295): 46.7 µM (inactive)
GI50 (A498): 27.7 µM (inactive)
GI50 (ACHN): 40.5 µM (inactive)
GI50 (M14): 49.3 µM (inactive)
GI50 (DU-145): 31.8 µM (inactive)
GI50 (MOLT-4): 39 µM (inactive)
GI50 (SF-539): 17.5 µM (inactive)
GI50 (RPMI-8226): 32.9 µM (inactive)
GI50 (PC-3): 26.2 µM (inactive)
GI50 (Malme-3M): 21.6 µM (inactive)
GI50 (BT-549): 23.2 µM (inactive)
GI50 (LOX IMVI): 16.6 µM (inactive)
GI50 (RXF 393): 16.4 µM (inactive)
GI50 (MDA-N): 29.8 µM (inactive)
GI50 (SN12C): 18.1 µM (inactive)
GI50 (OVCAR-4): 13.2 µM (inactive)
GI50 (OVCAR-8): 19.7 µM (inactive)
GI50 (CAKI-1): 13.5 µM (inactive)
GI50 (SK-OV-3): 8.67 µM (inactive)
GI50 (CCRF-CEM): 25.4 µM (inactive)
GI50 (UACC-62): 19.1 µM (inactive)
GI50 (A549): 54 µM (inactive)
GI50 (HCC 2998): 6.76 µM (inactive)
GI50 (MDA-MB-435): 30.5 µM (inactive)
GI50 (786-0): 20.3 µM (inactive)
GI50 (SNB-19): 13.2 µM (inactive)
GI50 (SW-620): 35.2 µM (inactive)
GI50 (OVCAR-5): 17.4 µM (inactive)
GI50 (HL-60): 28.2 µM (inactive)
GI50 (UACC-257): 7.8 µM (inactive)
GI50 (SF-268): 17.7 µM (inactive)
GI50 (MCF7): 17.1 µM (inactive)
GI50 (NCI-H226): 12.4 µM (inactive)
GI50 (K562): 35.6 µM (inactive)
GI50 (HCT-15): 32.8 µM
GI50 (IGROV-1): 25.8 µM (inactive)
GI50 (SNB-75): 13.7 µM (inactive)
GI50 (OVCAR-3): 25.2 µM (inactive)

Oc1ccc2ccccc2c1/N=N/c1ccc(/N=N/c2ccccc2)cc1
GI50 (SK-MEL-2): > 100 µM (inactive)
GI50 (UO-31): 59 µM (inactive)
GI50 (SK-MEL-5): > 100 µM (inactive)
GI50 (SR): 23.6 µM (inactive)
GI50 (HOP-62): > 100 µM (inactive)
GI50 (HT-29): > 100 µM (inactive)
GI50 (EKVX): > 100 µM (inactive)
GI50 (Hs-578T): > 100 µM (inactive)
GI50 (NCI-H23): > 100 µM (inactive)
GI50 (HCT-116): 93.1 µM (inactive)
GI50 (KM12): 84.9 µM (inactive)
GI50 (SK-MEL-28): > 100 µM (inactive)
GI50 (T47D): > 100 µM (inactive)
GI50 (MDA-MB-231): 89.1 µM (inactive)
GI50 (COLO 205): > 100 µM (inactive)
GI50 (NCI/ADR-RES): > 100 µM (inactive)
GI50 (NCI-H522): 86.3 µM (inactive)
GI50 (SF-295): > 100 µM (inactive)
GI50 (A498): > 100 µM (inactive)
GI50 (ACHN): > 100 µM (inactive)
GI50 (M14): > 100 µM (inactive)
GI50 (DU-145): > 100 µM (inactive)
GI50 (MOLT-4): > 100 µM (inactive)
GI50 (RPMI-8226): > 100 µM (inactive)
GI50 (PC-3): > 100 µM (inactive)
GI50 (TK-10): > 100 µM (inactive)
GI50 (Malme-3M): > 100 µM (inactive)
GI50 (BT-549): > 100 µM (inactive)
GI50 (U-251): 46.3 µM (inactive)
GI50 (LOX IMVI): > 100 µM (inactive)
GI50 (RXF 393): > 100 µM (inactive)
GI50 (MDA-N): 50 µM (inactive)
GI50 (SN12C): > 100 µM (inactive)
GI50 (OVCAR-4): > 100 µM (inactive)
GI50 (OVCAR-8): > 100 µM (inactive)
GI50 (CAKI-1): > 100 µM (inactive)
GI50 (SK-OV-3): > 100 µM (inactive)
GI50 (CCRF-CEM): > 100 µM (inactive)
GI50 (UACC-62): 75.7 µM (inactive)
GI50 (A549): 74.5 µM (inactive)
GI50 (MDA-MB-435): 64.1 µM (inactive)
GI50 (786-0): > 100 µM (inactive)
GI50 (SNB-19): > 100 µM (inactive)
GI50 (SW-620): > 100 µM (inactive)
GI50 (OVCAR-5): > 100 µM (inactive)
GI50 (HL-60): 0.43 µM (active)
GI50 (UACC-257): > 100 µM (inactive)
GI50 (SF-268): > 100 µM (inactive)
GI50 (NCI-H226): > 100 µM (inactive)
GI50 (K562): > 100 µM (inactive)
GI50 (HCT-15): > 100 µM
GI50 (IGROV-1): > 100 µM (inactive)
GI50 (SNB-75): 70.1 µM (inactive)
GI50 (OVCAR-3): > 100 µM (inactive)
